Format in all cases: in vivo, hairless Guinea pigs
Data set [1] is described as follows: Blood concentration of polysaccharide (Fondaparinux) after microporation patch (FIG. 13). The settings on record: 4 ms pulses. How it is done:
The patch 102 used for FIG. 13 graphs 1300 and 1320 has a nonwoven matrix, a thickness of 180 μm, weight of 18 g/m^2, WHC of 17 mg/cm^2, a drug of 0.01 mg/cm^2, and a total solids level of 6.1 mg/cm^2. An energy pulse of 6.3 mJ and 5.2 mJ per filament to create between about 200 and 400 pathways via microporation having a 1 cm^2 treated area of between about 5 and 10% per square centimeter of skin, respectively.
(§1) The graph 1300 includes the concentration of the polysacharride (for example, Fondaparinux) in micrograms/milliliter (μg/mL) along the y-axis and time in hours (hr) along the x-axis. […] The line 1302 represents the patch 102 having a formulation of 2.5 mg of the polysacharride applied with the patch 102 and microporation parameters described above. The line 1304 represents the patch 102 having a formulation of 5.0 mg of the polysacharride applied with the patch 102 and microporation parameters described above. The line 1306 represents the patch 102 having a formulation of 7.5 mg of the polysacharride applied with the patch 102 and microporation parameters described above. Each of the three lines 1302, 1304, and 1306 follow the same general trend of increasing to a peak concentration value and then gradually decreasing in concentration. The line 1306 has the highest concentration values, followed by line 1304 and then line 1302.
as §1, with “1320” for “1300”, “1322” for “1302”, “1324” for “1304”, “1326” for “1306”, “1322, 1324,” for “1302, 1304,”, “1322.” for “1302.”

Data set [2] in a line: Blood concentration of peptide (Teriparatide) after microporation patch (FIG. 17). Particulars: hairless, guinea pig, topical, API 0.2 mg/cm^2 + 0.5 mg sucrose; for bioavailability: read-out: bioavailability (BA); for Cmax: read-out: maximum concentration (Cmax). How it is done:
Table 15 identifies two groups (group 4 and group 6) that both use stainless steel filaments 200 and create 200 and 400 pathways, respectively, having applied an energy pulse of 9.3 mJ per filament with a treated area of about 10% per square centimeter of skin for 0.5 cm2 and 1.0 cm^2, respectively. The patch 102 used for the administration of the peptide shown in graph 1700 has a thickness of 38 μm, a weight of 12 g/m^2, a WHC of 4 mg/cm^2, an API of 0.2 mg/cm^2, and a total solid weight of about 0.7 mg/cm^2.
The graph 1700 includes the concentration of the peptide in ng/mL along the y-axis and time in hours (hr) along the x-axis. […] The line 1702 represents the patch 102 and microporation parameters of group 4 described above. The line 1704 represents the patch 102 and microporation parameters of group 6 described above.

Data set [3] is described as follows: Blood concentration of Somatropin after microporation patch (FIG. 18). The settings on record: patch 0.5 mg, 1.0 cm^2. The source says: The microporation occurs according to the parameters in Table 17. […] 200 Wide filaments are double the width of standard one (2×50 micrometers) so the energy pulse of 5.2 mJ and 9.3 mJ per filament, thus providing the same current density/flux, and similar power used.
The graph 1800 includes the concentration of the peptide in ng/mL along the y-axis and time in hours (hr) along the x-axis. […] The line 1802 represents the group 1 parameters from Tables 17 and 18. The line 1804 represents the group 2 parameters from Tables 17 and 18. The line 1806 represents the group 3 parameters from Tables 17 and 18. The line 1808 represents the group 4 parameters from Tables 17 and 18. Each of the four lines 1802, 1804, 1806, and 1808 follow the same general trend of increasing to a peak concentration value and then gradually decreasing in concentration. The line 1808 generally has the highest concentration values, followed by line 1802, then line 1804, and finally line 1806. It is noted that the line 1804 exceeds line 1806 from between about 2 hours to about 3 hours.

Setting [4] is: 0.2 mg/cm^2, group 4: 200 pores, 0.5 cm^2, 9.3 mJ/filament.
Setting [5] is: 0.2 mg/cm^2, group 6: 400 pores, 1.0 cm^2, 9.3 mJ/filament.
[6] abbreviates: group 1: 400 pores, 5.7 mJ/filament (Table 17).
Setting [7] is: group 2: 400 pores, 9.3 mJ/filament.
The mark [8] stands for this setting: group 3: 200 wide pores, 5.2 mJ/filament.
Setting [9] is: group 4: 200 wide pores, 9.3 mJ/filament.

For orientation: AUC means the area under the concentration-time curve, a measure of exposure. Regarding `CO[C@H]1O[C@H](COS(=O)(=O)O)[C@@H](O[C@@H]2O[C@@H](C(=O)O)[C@@H](O[C@H]3O[C@H](COS(=O)(=O)O)[C@@H](O[C@@H]4O[C@H](C(=O)O)[C@@H](O[C@H]5O[C@H](COS(=O)(=O)O)[C@@H](O)[C@H](O)[C@H]5NS(=O)(=O)O)[C@H](O)[C@H]4O)[C@H](OS(=O)(=O)O)[C@H]3NS(=O)(=O)O)[C@H](O)[C@H]2OS(=O)(=O)O)[C@H](O)[C@H]1NS(=O)(=O)O` [Fondaparinux], the “area under the curve (AUC)” value in data set [1] (patch 2.5 mg, 200 pathways) stood at 72800 ng·h/mL. The bioavailability in data set [1] (patch 2.5 mg, 200 pathways) is recorded as 170.9%; in data set [1] (patch 2.5 mg, 400 pathways), 228.5%; in data set [1] (patch 5.0 mg, 200 pathways), 118.4%; in data set [1] (patch 5.0 mg, 400 pathways), 146.9%; in data set [1] (patch 7.5 mg, 200 pathways) it was 119.2%; in data set [1] (patch 7.5 mg, 400 pathways) it was 114.1%. Moreover, the maximum concentration in data set [1] (patch 2.5 mg, 200 pathways) stood at 5.1 µg/mL; in data set [1] (patch 2.5 mg, 400 pathways) it was 8.0 µg/mL; in data set [1] (patch 5.0 mg, 200 pathways) it was 6.7 µg/mL; in data set [1] (patch 5.0 mg, 400 pathways) it was 10.5 µg/mL; in data set [1] (patch 7.5 mg, 200 pathways), 9.1 µg/mL; in data set [1] (patch 7.5 mg, 400 pathways), 11.5 µg/mL. Further, the AUC worked out at 97300 ng·h/mL in data set [1] (patch 2.5 mg, 400 pathways); 100900 ng·h/mL in data set [1] (patch 5.0 mg, 200 pathways); 125200 ng·h/mL in data set [1] (patch 5.0 mg, 400 pathways); 152300 ng·h/mL in data set [1] (patch 7.5 mg, 200 pathways); 145800 ng·h/mL in data set [1] (patch 7.5 mg, 400 pathways).
`CC[C@H](C)[C@H](NC(=O)[C@H](CCC(=O)O)NC(=O)[C@H](CO)NC(=O)[C@@H](NC(=O)[C@@H](N)CO)C(C)C)C(=O)N[C@@H](CCC(N)=O)C(=O)N[C@@H](CC(C)C)C(=O)N[C@@H](CCSC)C(=O)N[C@@H](Cc1cnc[nH]1)C(=O)N[C@@H](CC(N)=O)C(=O)N[C@@H](CC(C)C)C(=O)NCC(=O)N[C@@H](CCCCN)C(=O)N[C@@H](Cc1cnc[nH]1)C(=O)N[C@@H](CC(C)C)C(=O)N[C@@H](CC(N)=O)C(=O)N[C@@H](CO)C(=O)N[C@@H](CCSC)C(=O)N[C@@H](CCC(=O)O)C(=O)N[C@@H](CCCN=C(N)N)C(=O)N[C@H](C(=O)N[C@@H](CCC(=O)O)C(=O)N[C@@H](Cc1c[nH]c2ccccc12)C(=O)N[C@@H](CC(C)C)C(=O)N[C@@H](CCCN=C(N)N)C(=O)N[C@@H](CCCCN)C(=O)N[C@@H](CCCCN)C(=O)N[C@@H](CC(C)C)C(=O)N[C@@H](CCC(N)=O)C(=O)N[C@@H](CC(=O)O)C(=O)N[C@H](C(=O)N[C@@H](Cc1cnc[nH]1)C(=O)N[C@@H](CC(N)=O)C(=O)N[C@@H](Cc1ccccc1)C(=O)O)C(C)C)C(C)C` [Teriparatide]: in data set [2] (setting [4]), the area under the curve (AUC) came to 3260 ng·h/mL, the bioavailability was determined as 37.4% and the Cmax is 9.16 ng/mL. In data set [2] (setting [5]), the AUC was determined as 2210 ng·h/mL, the bioavailability stood at 25.4% and the Cmax stood at 11.2 ng/mL.
In general, Tmax refers to the time at which the peak concentration occurs. With Somatropin, in data set [3] (setting [6]), the AUC was 87.1 ng·h/mL, the Cmax turned out to be 20.4 ng/mL, the time to peak (Tmax) turned out to be 1.3 h and the “bioavailability (BA)” value is on record as 35.8%. Besides, in data set [3] (setting [7]), the AUC amounted to 90.1 ng·h/mL, the Cmax was 16.1 ng/mL, the Tmax came to 1.8 h and the “bioavailability (BA)” value stood at 37.0%. Further, in data set [3] (setting [8]), the AUC was found to be 78.1 ng·h/mL, the Cmax was 16.4 ng/mL, the time to peak (Tmax) is 1.5 h and the “bioavailability (BA)” value is recorded as 32.1%. In data set [3] (setting [9]), the exposure (AUC) stood at 94.9 ng·h/mL, the Cmax worked out at 22.6 ng/mL, the Tmax was 1.5 h and the “bioavailability (BA)” value is on record as 39.0%.

Source of the values: US12605539B2, “Methods and systems for delivering drugs through skin of a body” (PASSPORT TECHNOLOGIES, INC., priority 2019, dated 2026).
